The source of these data is paper PMC11520136, “Design, synthesis, and biological investigations of new pyrazole derivatives as VEGFR2/CDK-2 inhibitors targeting liver cancer” (BMC Chemistry, 2024).

Entries after “also recorded” stand apart in the source; their conditions may differ.

Assay [1] deals with T1, VEGFR2 kinase (Homo sapiens, UniProt P35968).
T1 construct: purchased BPS Bioscience 40,325
The assay can be described thus: VEGFR2 (KDR) kinase assay kit. The assay is classed as biochemical. Particulars: for IC50: average of three independent replicates.

For assay [2], the system named is HepG2 cells. The assay can be described thus: MTT cytotoxicity assay against HepG2. The assay is classed as cell-based. Particulars: mean ± SD, n = 3. On the procedure: (§1) The cell lines were supplemented with 10% fetal bovine serum (Sigma-Aldrich, MO, USA) and 1% penicillin–streptomycin. Compounds were added to the cells on the second day at doses of “0, 0.01, 0.1, 1, 10, and 100 μM”. Cell viability was assessed after 48 h using the MTT solution (Promega, USA).
Background: Tetrazolium assays rely on reduction of a dye to a coloured formazan, in cell work by metabolically active cells.

Assay [3] has as its system THLE2 cells. The assay can be described thus: MTT cytotoxicity assay against THLE2. The assay is classed as cell-based. Conditions: Homo sapiens, THLE-2, 48 h, normal liver cells, mean ± SD, n = 3. On the procedure:
as §1

In assay [4] the target is T2, CDK-2 kinase (Homo sapiens, UniProt P24941).
T2 construct: purchased Promega (so in the source) 79,599
The assay can be described thus: CDK-2 luminescence kinase assay kit. Particulars: for IC50: average of three independent replicates. The assay is classed as biochemical.

Assay [5] concerns HepG2 cells. Description: Annexin V/PI staining flow cytometry (apoptosis/necrosis). More on the design: Apoptosis Total / Apoptosis Early / Apoptosis Late: unit not given here. Particulars: for total apoptosis (overall apoptotic cell death): untreated control 0.95%; for Apoptosis Late: Cont.HepG2 0.23; for Apoptosis Early: Cont.HepG2 0.72; for Apoptosis Total: Cont.HepG2 2.47. The assay is classed as cell-based. On the procedure: (§2) HepG2 cells (3–5 105 cells/well) were cultured onto 6-well culture plates and incubated overnight. […] The cells and medium supernatants were then washed with ice-cold PBS. After that, […] of annexin binding buffer solution was added to the cell suspension "25 mM CaCl2, 1.4 M NaCl, and 0.1 M Hepes/NaOH, pH 7.4″ and incubation with “Annexin V-FITC solution (1:100) and propidium iodide (PI)” at a concentration equals 10 µg/mL in the dark for 30 min. The Cytoflex FACS system was then used to acquire the stained cells. cytExpert was used for data analysis.
On the technique in general: Flow cytometry measures light scatter and fluorescence of single cells or particles in a stream.

Assay [6] relates to HepG2 cells. Description: DNA content flow cytometry cell cycle analysis. Conditions: HepG2, IC50 values, 48 h; for DNA content %G2/M: control 20.6; for DNA content %S: control 37.59; for DNA content %G0-G1: control 41.81. The assay is classed as cell-based. On the procedure: as §2
Kit used : ab139418_Propidium Iodide Flow Cytometry Kit/BD

The test system of assay [7] is HepG2 liver cancer cells. More on the design: method as in PMID 32559576, PMID 37234266, doi:10.1016/j.molstruc.2023.135765. Conditions: Fig. 1; read-out: IC50 against HepG2 liver cancer cells; cited from earlier work.
[8] abbreviates: HepG2, at the IC50 values, 48 h.
The mark [9] stands for this setting: HepG2, at the IC50 values, 48 h, untreated control 1.52%.
Where [10] appears, read: supplement lab report, HepG2, Cont.HepG2 1.52.

T1 sequence (P35968 20-1356): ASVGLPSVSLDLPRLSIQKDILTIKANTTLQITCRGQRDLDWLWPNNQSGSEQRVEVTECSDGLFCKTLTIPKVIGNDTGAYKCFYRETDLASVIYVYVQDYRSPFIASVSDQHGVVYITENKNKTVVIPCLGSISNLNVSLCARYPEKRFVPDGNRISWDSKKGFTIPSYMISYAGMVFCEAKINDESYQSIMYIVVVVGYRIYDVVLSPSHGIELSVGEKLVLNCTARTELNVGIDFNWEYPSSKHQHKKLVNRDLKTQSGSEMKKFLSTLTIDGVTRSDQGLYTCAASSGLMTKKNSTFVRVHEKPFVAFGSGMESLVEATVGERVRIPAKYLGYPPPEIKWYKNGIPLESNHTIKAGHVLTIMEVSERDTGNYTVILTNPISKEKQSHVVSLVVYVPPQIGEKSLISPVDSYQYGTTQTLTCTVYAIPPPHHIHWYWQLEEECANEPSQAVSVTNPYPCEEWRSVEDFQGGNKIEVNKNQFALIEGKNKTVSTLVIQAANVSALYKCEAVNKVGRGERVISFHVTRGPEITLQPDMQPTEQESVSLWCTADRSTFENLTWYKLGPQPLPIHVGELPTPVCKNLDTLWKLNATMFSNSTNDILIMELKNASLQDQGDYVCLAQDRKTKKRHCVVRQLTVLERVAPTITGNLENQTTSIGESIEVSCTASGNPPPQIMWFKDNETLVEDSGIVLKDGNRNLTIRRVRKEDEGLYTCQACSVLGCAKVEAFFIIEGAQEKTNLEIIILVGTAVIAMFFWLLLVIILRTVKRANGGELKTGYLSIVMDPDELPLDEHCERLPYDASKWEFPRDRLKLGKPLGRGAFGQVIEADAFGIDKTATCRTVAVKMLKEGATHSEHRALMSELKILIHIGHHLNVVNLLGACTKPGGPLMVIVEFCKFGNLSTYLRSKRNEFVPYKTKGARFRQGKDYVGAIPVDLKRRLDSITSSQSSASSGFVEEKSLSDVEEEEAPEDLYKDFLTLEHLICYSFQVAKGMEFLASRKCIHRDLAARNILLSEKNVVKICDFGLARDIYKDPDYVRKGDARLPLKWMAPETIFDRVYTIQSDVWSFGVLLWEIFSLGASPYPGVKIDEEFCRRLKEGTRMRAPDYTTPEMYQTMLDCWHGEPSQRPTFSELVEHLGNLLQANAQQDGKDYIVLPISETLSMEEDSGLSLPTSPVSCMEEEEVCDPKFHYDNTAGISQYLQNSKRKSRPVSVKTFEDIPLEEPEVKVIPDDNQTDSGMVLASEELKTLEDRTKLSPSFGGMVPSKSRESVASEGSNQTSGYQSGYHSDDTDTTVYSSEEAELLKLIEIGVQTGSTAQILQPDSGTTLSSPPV

For the compound `CC1=NN(C(c2ccccc2)N2CCCCC2)C(=O)C1N=Nc1ccccc1` (stereo not drawn) [Compound 4a, 5-Methyl-2-(phenyl(piperidin-1-yl)methyl)-4-(phenyldiazenyl)-2,4-dihydro-3H -pyrazol-3-one], the inhibition at 10 µM in assay [1] worked out at 90.5 ± 2.1%; in assay [4] it was 90.9 ± 1.9%. The concentration for half-maximal inhibition (IC50) in assay [1] is 0.55 ± 0.006 µM; in assay [2] (48 h), 4.43 ± 0.25 µM; in assay [2] (Homo sapiens, HepG2, 48 h), 4.4 µM; in assay [3] it was 27.3 ± 1.15 µM; in assay [4] it was 0.205 ± 0.011 µM.
In assay [1], `Cc1nn(C(Nc2c(C)n(C)n(-c3ccccc3)c2=O)c2ccccc2)c(O)c1N=Nc1ccccc1[N+](=O)[O-]` (stereo not drawn) [Compound 6b, 4-(((5-Hydroxy-3-methyl-4-((2-nitrophenyl)diazenyl)-1H-pyrazol-1-yl)(phenyl)methyl)amino)-1,5-dimethyl-2-phenyl-1,2-dihydro-3H-pyrazol-3-one] registered an inhibition at 10 µM of 93.2 ± 2.9% and an IC50 of 0.2 ± 0.001 µM. Moreover, 2.52 ± 0.12 µM corresponded to half-maximal inhibition in assay [2] (Homo sapiens, HepG2, 48 h) (IC50). This compound returned a half-maximal inhibitory concentration (IC50) in assay [3] of 60.2 ± 2.54 µM. Also, the “total apoptosis (overall apoptotic cell death)” value in assay [5] (setting [8]) is 42.9%. Also, the necrosis in assay [5] (setting [9]) is on record as 7.54%. In assay [5] (supplement lab report, HepG2), the “Apoptosis Late” value was determined as 14.48, the “Apoptosis Early” value came out at 29.17 and the “Apoptosis Total” value stood at 51.19. In assay [5] (setting [10]), this compound gave a necrosis of 7.54. For the same compound, in assay [6], the “cell cycle phase of growth arrest (Comment)” value (“cell cycle phase” below) is reported as “S-phases; also recorded: S phase”, the “DNA content %G2/M” value is 12.49%, the “DNA content %S” value was 41.33% and the “DNA content %G0-G1” value is on record as 46.18%. Further, the “cell cycle phase” value in assay [6] (listed as s31) is reported as “cell growth arrest@ G1/S”. In assay [4], this compound registered an inhibition at 10 µM of 88.7 ± 2.6% and a concentration for half-maximal inhibition (IC50) of 0.458 ± 0.017 µM.
`Cc1nn(C(Nc2ccccc2[N+](=O)[O-])c2ccccc2)c(O)c1N=Nc1ccccc1` (stereo not drawn) [Compound 5b, 3-Methyl-1-((2-nitrophenylamino)(phenyl)methyl)-4-(phenyldiazenyl)-1H-pyrazol-5-ol]: the IC50 came out at 17.3 ± 0.8 µM in assay [2] (48 h); 17.1 µM in assay [2] (Homo sapiens, HepG2, 48 h); 65.2 ± 2.3 µM in assay [3].
In assay [2] (Homo sapiens, HepG2, 48 h), `COc1cccc2c1C(=O)c1c(O)c3c(c(O)c1C2=O)C[C@@](O)(C(=O)CO)C[C@@H]3O[C@H]1C[C@H](N)[C@H](O)[C@H](C)O1` [doxorubicin, reference compound] returned a half-inhibitory concentration (IC50) of 2.05 µM.
Consider `CC1=NN(C(c2ccccc2)N2CCOCC2)C(=O)C1N=Nc1ccc(Cl)cc1` (stereo not drawn) [Compound 3c, 4-((4-Chlorophenyl)diazenyl)-5-methyl-2-(morpholino(phenyl)methyl)-2,4-dihydro-3H-pyrazol-3-one], for which the half-maximal inhibitory concentration (IC50) in assay [3] worked out at 34.5 ± 2.1 µM.
Turning to `CC1=NN(C(c2ccccc2)N2CCCCC2)C(=O)C1N=Nc1ccc(Cl)cc1` (stereo not drawn) [Compound 4c, 4-((4-Chlorophenyl)diazenyl)-5-methyl-2-(phenyl(piperidin-1-yl)methyl)-2,4-dihydro-3H-pyrazol-3-one], the IC50 in assay [2] (Homo sapiens, HepG2, 48 h) is 25.2 ± 1.41 µM; in assay [3], 34.7 ± 1.05 µM.
Take `CNC(=O)c1cc(Oc2ccc(NC(=O)Nc3ccc(Cl)c(C(F)(F)F)c3)cc2)ccn1` [Sorafenib, reference compound]: in assay [3], the half-inhibitory concentration (IC50) was 17 ± 0.72 µM.
Turning to `CC1=NN(C(c2ccccc2)N2CCOCC2)C(=O)C1N=Nc1ccccc1[N+](=O)[O-]` (stereo not drawn) [Compound 3b, 5-Methyl-2-(morpholino(phenyl)methyl)-4-((2-nitrophenyl)diazenyl)-2,4-dihydro-3H-pyrazol-3-one], the IC50 worked out at 55.5 ± 3.1 µM in assay [2] (Homo sapiens, HepG2, 48 h) and 47.2 ± 1.85 µM in assay [3].
As to `CC1=NN(C(c2ccccc2)N2CCOCC2)C(=O)C1N=Nc1ccccc1` (stereo not drawn) [Compound 3a, 5-Methyl-2-(morpholino(phenyl)methyl)-4-(phenyldiazenyl)-2,4-dihydro-3H-pyrazol-3-one], the half-inhibitory concentration (IC50) in assay [2] (Homo sapiens, HepG2, 48 h) was determined as 33.9 ± 1.89 µM; in assay [3] it was 41.2 ± 1.19 µM.
In assay [1], `Cc1nn(C(Nc2ccccc2)c2ccccc2)c(O)c1N=Nc1ccccc1` (stereo not drawn) [Compound 5a, 3-Methyl-1-(phenyl(phenylamino)methyl)-4-(phenyldiazenyl)-1H-pyrazol-5-ol] registered an inhibition at 10 µM of 91.7 ± 3.1% and an IC50 of 0.267 ± 0.001 µM. Inhibition in assay [2] (Homo sapiens, HepG2, 48 h) was half-maximal at 3.46 ± 0.16 µM (IC50). Besides, in assay [3], it took 48.7 ± 2.05 µM to reach half-maximal inhibition (IC50). Besides, the “total apoptosis (overall apoptotic cell death)” value in assay [5] (setting [8]) is reported as 38.32%. The compound also displayed a necrosis in assay [5] (setting [9]) of 4.63%. In assay [5] (supplement lab report, HepG2), the “Apoptosis Late” value came out at 11.55, the “Apoptosis Early” value came out at 26.77 and the “Apoptosis Total” value is 42.95. In assay [5] (setting [10]), the necrosis is 4.63. Also, in assay [6], the “DNA content %G2/M” value is recorded as 15.61%, the “DNA content %S” value is 35.21% and the “DNA content %G0-G1” value was 49.18%. Also, the “cell cycle phase” value in assay [6] (listed as s20) is given as “cell growth arrest@ G1”. In assay [4], this compound yielded an inhibition at 10 µM of 91 ± 2.1% and a 50% inhibitory concentration (IC50) of 0.311 ± 0.011 µM.
Regarding `Cc1nn(C(Nc2c(C)n(C)n(-c3ccccc3)c2=O)c2ccccc2)c(O)c1N=Nc1ccccc1` (stereo not drawn) [Compound 6a, 4-(((5-Hydroxy-3-methyl-4-(phenyldiazenyl)-1H-pyrazol-1-yl)(phenyl)methyl)amino)-1,5-dimethyl-2-phenyl-1,2-dihydro-3H-pyrazol-3-one], it took 75.3 ± 3.3 µM to reach half-maximal inhibition in assay [3] (IC50).
For the compound `COc1ccc(OC)c(NC(=O)c2cc(-c3c[nH]c4ccccc34)n[nH]2)c1` [SI], in assay [7], the half-maximal inhibitory concentration (IC50) was 0.6 µM.
In the case of `CC1=NN(C(c2ccccc2)N2CCCCC2)C(=O)C1N=Nc1ccccc1[N+](=O)[O-]` (stereo not drawn) [Compound 4b, 5-Methyl-4-((2-nitrophenyl)diazenyl)-2-(phenyl(piperidin-1-yl)methyl)-2,4-dihydro-3H-pyrazol-3-one], the IC50 in assay [2] (48 h) was determined as 9.34 ± 0.52 µM; in assay [2] (Homo sapiens, HepG2, 48 h) it was 9.33 µM; in assay [3] it was 72.4 ± 2.15 µM.

As usually defined, the inhibition is the drop in the measured response relative to a control, in per cent. As a reminder, the IC50 is the midpoint of a concentration-inhibition curve.
